The values below come from patent US10844049B2, “GLP-1R agonists and uses thereof” (QILU REGOR THERAPEUTICS INC., priority 2018, dated 2020).

In this assay the target is GLP1R (Homo sapiens, UniProt P43220). The assay can be described thus: GLP1R cAMP HTRF assay, HEK293/GLP-1R/CRE/Luc (HEK293T cells). It is filed as cell-based. As to conditions: read-out: EC50. The method in brief: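 cAMP accumulation via HTRF after 30 min, 37 °C exposure of 1000 receptor-expressing cells/well to compound (0.5% DMSO final) in IBMX (500 μM)/0.1% BSA DPBS.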
Sequence of GLP1R (P43220 24-463): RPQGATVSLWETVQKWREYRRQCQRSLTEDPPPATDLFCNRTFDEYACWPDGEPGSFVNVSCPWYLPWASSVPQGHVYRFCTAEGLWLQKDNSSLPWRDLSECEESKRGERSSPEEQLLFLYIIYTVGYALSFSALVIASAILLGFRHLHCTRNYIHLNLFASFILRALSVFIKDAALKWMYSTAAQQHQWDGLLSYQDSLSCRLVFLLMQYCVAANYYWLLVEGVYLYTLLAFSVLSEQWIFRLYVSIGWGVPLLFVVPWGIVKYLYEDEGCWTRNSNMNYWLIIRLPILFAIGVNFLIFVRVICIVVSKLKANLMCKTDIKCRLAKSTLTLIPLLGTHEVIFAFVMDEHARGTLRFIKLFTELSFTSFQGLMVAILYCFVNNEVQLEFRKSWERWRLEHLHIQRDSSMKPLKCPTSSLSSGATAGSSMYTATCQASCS
Background: TR-FRET usually uses a lanthanide donor and a delayed reading to cut background.

pEC50: −log10 of the molar value.

Consider `O=C(O)c1ccc2nc(CN3CC=C(c4nc(OCc5ccc(Cl)cc5F)ncc4F)CC3)n(C[C@@H]3CCO3)c2c1` [Compound 126, (S)-2-((4-(2-(4-chloro-2-fluorobenzyloxy)-5-fluoropyrimidin-4-yl)-5,6-dihydropyridin-1(2H)-yl)methyl)-1-(oxetan-2-ylmethyl)-1H-benzo[d]imidazole-6-carboxylic acid], for which the pEC50 (in general, −log10 of the EC50, conventionally taken in molar units) was ≥ 7.82.
With `O=C(O)c1ccc2nc(CN3CC=C(c4cccc(OCc5ccnc(Cl)c5)n4)CC3)n(C[C@@H]3CCO3)c2c1` [Compound 162, (S)-2-((6-((2-chloropyridin-4-yl)methoxy)-3′,6′-dihydro-[2,4′-bipyridin]-1′(2′H)-yl)methyl)-1-(oxetan-2-ylmethyl)-1H-benzo[d]imidazole-6-carboxylic acid], the negative logarithm of the EC50 (pEC50) is ≥ 6.82.
Next, `O=C(O)c1ccc2nc(CN3CCN(c4cc(OCc5ccc(Cl)cc5F)c(F)cc4F)CC3)n(C[C@@H]3CCO3)c2c1` [Compound 188]: ≥ 6.82; `O=C(NO)c1ccc2nc(CN3CC=C(c4cccc(OCc5ccc(Cl)cc5F)n4)CC3)n(C[C@@H]3CCO3)c2c1` [Compound 174, (S)-2-((6-((4-chloro-2-fluorobenzyl)oxy)-5′,6′-dihydro-[2,4′-bipyridin]-1′(2′H)-yl)methyl)-N-hydroxy-1-(oxetan-2-ylmethyl)-1H-benzo[d]imidazole-6-carboxamide]: ≥ 7.82; `O=C(O)c1ccc2nc(CN3CC=C(c4cc(OCc5ccc(Cl)cc5F)ccn4)CC3)n(C[C@@H]3CCO3)c2c1` [Compound 30, (S)-2-((4-((4-chloro-2-fluorobenzyl)oxy)-3′,6′-dihydro-[2,4′-bipyridin]-1′(2′H)-yl)methyl)-1-(oxetan-2-ylmethyl)-1 h-benzo[d]imidazole-6-carboxylic add]: ≥ 6.82.
Next, `O=C(O)c1ccc2nc(CN3CC=C(c4cccc(OCc5cnccc5C(F)(F)F)n4)CC3)n(C[C@@H]3CCO3)c2c1` [Compound 150, (S)-1-(oxetan-2-ylmethyl)-2-((6-((4-(trifluoromethyl)pyridin-3-yl)methoxy)-3′,6′-dihydro-[2,4′-bipyridin]-1′(2′H)-yl)methyl)-1H-benzo[d]imidazole-6-carboxylic add]: ≥ 6.00; `O=C(O)c1ccc2nc(CC3CCN(c4cccc(OCc5ccc(F)cc5F)n4)CC3)n(C[C@@H]3CCO3)c2n1` [Compound 229, (S)-2-((l-(6-((2,4-difluorobenzyl)oxy)pyridin-2-yl)piperidin-4-yl)methyl)-3-(oxetan-2-ylmethyl)-3H-imidazo[4,5-b]pyridine-5-carboxylic acid]: ≥ 7.82.
The figure for `N#Cc1ccc2nc(CN3CC=C(c4cccc(OCc5ccc(Cl)cc5F)n4)CC3)n(C[C@@H]3CCO3)c2c1` [Compound 71, (S)-2-((4-(6-(4-chloro-2-fluorobenzyloxy)pyridin-2-yl)-5,6-dihydropyridin-1(2H)-yl)methyl)-1-(oxetan-2-ylmethyl)-1H-benzo[d]imidazole-6-carbonitrile] is < 6.00.
As for `O=C(O)c1ccc2nc(CN3CC=C(c4cccc(OCc5ccc(Cl)c(Cl)c5)n4)CC3)n(C[C@@H]3CCO3)c2c1` [Compound 115, (S)-2-((6-((3,4-dichlorobenzyl)oxy)-3′,6′-dihydro[2,4′-bipyridin]-1′(2′H)-yl)methyl)-1-(oxetan-2-ylmethyl)-1H-benzo[d]imidazole-6-carboxylic add], the pEC50 is ≥ 7.82.
Next, `N#Cc1ccc(COc2ccc(F)c(C3=CCN(Cc4nc5ccc(C(=O)O)cc5n4C[C@@H]4CCO4)CC3)c2)c(F)c1` [Compound 206, (S)-2-((4-(5-((4-cyano-2-fluorobenzyl)oxy)-2-fluorophenyl)-3,6-dihydropyridin-1(2H)-yl)methyl)-1-(oxetan-2-ylmethyl)-1H-benzo[d]imidazole-6-carboxylic add]: ≥ 7.82; `O=C(O)c1ccc2nc(CN3CCN(c4ccc(F)c(OCc5ccc(Cl)cc5F)c4)CC3)n(C[C@@H]3CCO3)c2c1` [Compound 184, (S)-2-((4-(3-((4-chloro-2-fluorobenzyl)oxy)-4-fluorophenyl)piperazin-1-yl)methyl)-1-(oxetan-2-ylmethyl)-1H-benzo[d]imidazole-6-carboxylic acid]: ≥ 7.82.
`Cc1c(C(=O)O)ccc2nc(CN3CC=C(c4cccc(OCc5ccc(Cl)cc5)n4)CC3)n(C[C@@H]3CCO3)c12` [Compound 110, (S)-2-((6-((4-chlorobenzyl)oxy)-3′,6′-dihydro-[2,4′-bipyridin]-1′(2′H)-yl)methyl)-7-methyl-1-(oxetan-2-ylmethyl)-1H-benzo[d]imidazole-6-carboxylic add]: the pEC50 is ≥ 7.82.
Regarding `O=C(O)c1ccc2nc(CN3CCN(c4ccc5ccn(Cc6ccc(Cl)cc6F)c5c4)CC3)n(C[C@@H]3CCO3)c2c1` [Compound 14, (S)-2-((4-(1-(4-chloro-2-fluorobenzyl)-th-indol-6-yl)piperazin-1-yl)methyl)-1-(oxetan-2-ylmethyl)-1 h-benzo[d]imidazole-6-carboxylic acid], the pEC50 is < 6.00.
Next, `O=C(O)c1ccc2nc(CN3CC=C(c4cccc(OCc5cc(Cl)cc(Cl)c5)n4)CC3)n(C[C@@H]3CCO3)c2c1` [Compound 139, (S)-2-((6-((3,5-dichlorobenzyl)oxy)-3′,6′-dihydro-[2,4′-bipyridin]-1′(2′H)-yl)methyl)-1-(oxetan-2-ylmethyl)-1H-benzo[d]imidazole-6-carboxylic acid]: ≥ 6.82; `O=C(O)c1ccc2nc(CN3CC=C(c4nccc(NCc5ccc(Cl)cc5F)n4)CC3)n(C[C@@H]3CCO3)c2c1` [Compound 124, (S)-2-((4-(4-((4-chloro-2-fluorobenzyl)amino)pyrimidin-2-yl)-5,6-dihydropyridin-1(2H)-yl)methyl)-1-(oxetan-2-ylmethyl)-1H-benzo[d]imidazole-6-carboxylic add]: ≥ 6.00.
The figure for `O=C(O)c1ccc2nc(CN3CC=C(c4ccnc(OCc5ccc(C(F)(F)F)nc5)n4)CC3)n(C[C@@H]3CCO3)c2c1` [Compound 219, (S)-1-(oxetan-2-ylmethyl)-2-((4-(2-((6-(trifluoromethyl)pyridin-3-yl)methoxy)pyrimidin-4-yl)-5,6-dihydropyridin-1(2H)-yl)methyl)-1H-benzo[d]imidazole-6-carboxylic acid] is ≥ 6.00; for `O=C(O)c1ccc2nc(CN3CC=C(c4nccc(OCc5ccc(F)cc5F)n4)CC3)n(C[C@@H]3CCO3)c2c1` [Compound 214, (S)-2-((4-(4-((2,4-difluorobenzyl)oxy)pyrimidin-2-yl)-3,6-dihydropyridin-1(2H)-yl)methyl)-1-(oxetan-2-ylmethyl)-1H-benzo[d]imidazole-6-carboxylic add] it is ≥ 6.82; for `O=C(O)c1ccc2nc(CN3CC=C(c4cccc(OC5CCOc6cc(Cl)ccc65)n4)CC3)n(C[C@@H]3CCO3)c2c1` (stereo partly drawn) [Compound 69, 2-((6-((7-chlorochroman-4-yl)oxy)-5′,6′-dihydro-[2,4′-bipyridin]-1′(2′H)-yl)methyl)-1-((S)-oxetan-2-ylmethyl)-1H-benzo[d]imidazole-6-carboxylic add] it is ≥ 6.00.
For `O=C(O)c1ccc2nc(CN3CCN(c4cc(F)cc(OCc5ccc(Cl)cc5F)c4)CC3)n(C[C@@H]3CCO3)c2c1` [Compound 185, (S)-2-((4-(3-((4-chloro-2-fluorobenzyl)oxy)-5-fluorophenyl)piperazin-1-yl)methyl)-1-(oxetan-2-ylmethyl)-1H-benzo[d]imidazole-6-carboxylic acid], the pEC50 is ≥ 7.82.
